Data as given in ChEMBL document CHEMBL2163236, “7-Oxo-[1,4]oxazino[2,3,4-ij]quinoline-6-carboxamides as selective CB(2) cannabinoid receptor ligands: structural investigations around a novel class of full agonists” (J Med Chem, 2012).

How the values were obtained:
Cannabinoid receptor 1 [1] = molecular target: Cannabinoid receptor 1 (Homo sapiens, UniProt P21554); assay: Displacement of [3H]CP-55940 from human recombinant CB1 receptor expressed in CHO cell membranes incubated for 90 mins by scintillation counting
Cannabinoid receptor 2 [2] = molecular target: T1, Cannabinoid receptor 2 (Homo sapiens, UniProt P34972); assay: Displacement of [3H]CP-55940 from human recombinant CB2 receptor expressed in CHO cell membranes incubated for 60 mins by scintillation counting
Cannabinoid receptor 2 [3] = molecular target: T2, Cannabinoid receptor 2 (Rattus norvegicus, UniProt Q9QZN9); assay: Displacement of [3H]CP-55940 from CB2 receptor in Sprague-Dawley rat spleen by scintillation counting
T2 sequence (Q9QZN9 whole entry): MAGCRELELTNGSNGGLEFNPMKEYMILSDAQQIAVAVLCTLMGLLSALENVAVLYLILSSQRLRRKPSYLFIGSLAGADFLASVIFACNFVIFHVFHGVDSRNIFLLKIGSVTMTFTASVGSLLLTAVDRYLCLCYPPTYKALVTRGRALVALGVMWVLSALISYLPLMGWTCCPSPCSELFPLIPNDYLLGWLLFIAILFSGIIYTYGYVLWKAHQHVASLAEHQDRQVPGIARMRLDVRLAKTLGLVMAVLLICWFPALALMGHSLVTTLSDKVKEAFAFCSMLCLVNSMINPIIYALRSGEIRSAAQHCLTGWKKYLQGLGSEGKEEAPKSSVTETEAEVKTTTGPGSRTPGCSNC

Cannabinoid receptor 1 [4] = molecular target: Cannabinoid receptor 1 (Rattus norvegicus, UniProt P20272); assay: Displacement of [3H]CP-55940 from CB1 receptor in Sprague-Dawley rat brain by scintillation counting
Cannabinoid receptor 2 [5] = molecular target: T1, Cannabinoid receptor 2; assay: Agonist activity at human recombinant CB2 receptor expressed in CHO cell membranes assessed as inhibition of forskolin-induced cAMP accumulation; format: functional, cell-based
Homo sapiens = species: Homo sapiens; assay: Selectivity ratio of Ki for human recombinant CB1 receptor to KI for human recombinant CB2 receptor

Sequence of Cannabinoid receptor 1 (Homo sapiens, UniProt P21554) (P21554 whole entry): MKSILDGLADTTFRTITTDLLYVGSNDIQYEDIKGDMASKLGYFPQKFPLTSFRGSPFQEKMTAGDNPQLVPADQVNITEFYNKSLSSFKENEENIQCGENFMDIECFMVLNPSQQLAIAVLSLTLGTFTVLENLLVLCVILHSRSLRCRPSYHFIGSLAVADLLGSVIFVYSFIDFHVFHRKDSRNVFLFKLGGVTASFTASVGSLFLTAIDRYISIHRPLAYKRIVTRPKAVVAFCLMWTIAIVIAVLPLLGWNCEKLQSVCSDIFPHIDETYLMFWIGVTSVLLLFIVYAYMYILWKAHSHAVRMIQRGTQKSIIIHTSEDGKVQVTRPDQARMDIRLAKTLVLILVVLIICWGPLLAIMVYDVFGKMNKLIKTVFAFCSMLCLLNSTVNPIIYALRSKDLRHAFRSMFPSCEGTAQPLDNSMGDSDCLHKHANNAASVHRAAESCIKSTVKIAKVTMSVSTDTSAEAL
Sequence of Cannabinoid receptor 1 (Rattus norvegicus, UniProt P20272) (P20272 whole entry): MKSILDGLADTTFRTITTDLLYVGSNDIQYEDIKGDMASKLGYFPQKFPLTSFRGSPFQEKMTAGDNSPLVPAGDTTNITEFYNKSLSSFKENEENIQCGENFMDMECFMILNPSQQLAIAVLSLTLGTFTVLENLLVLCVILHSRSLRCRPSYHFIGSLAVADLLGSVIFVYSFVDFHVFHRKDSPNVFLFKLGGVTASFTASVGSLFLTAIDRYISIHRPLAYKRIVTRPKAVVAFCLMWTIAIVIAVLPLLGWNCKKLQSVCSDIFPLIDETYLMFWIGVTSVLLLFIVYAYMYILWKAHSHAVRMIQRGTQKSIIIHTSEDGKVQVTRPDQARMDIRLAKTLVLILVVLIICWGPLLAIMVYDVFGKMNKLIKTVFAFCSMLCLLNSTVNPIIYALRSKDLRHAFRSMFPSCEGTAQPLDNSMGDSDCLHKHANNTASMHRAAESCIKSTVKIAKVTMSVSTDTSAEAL
T1 sequence (P34972 whole entry): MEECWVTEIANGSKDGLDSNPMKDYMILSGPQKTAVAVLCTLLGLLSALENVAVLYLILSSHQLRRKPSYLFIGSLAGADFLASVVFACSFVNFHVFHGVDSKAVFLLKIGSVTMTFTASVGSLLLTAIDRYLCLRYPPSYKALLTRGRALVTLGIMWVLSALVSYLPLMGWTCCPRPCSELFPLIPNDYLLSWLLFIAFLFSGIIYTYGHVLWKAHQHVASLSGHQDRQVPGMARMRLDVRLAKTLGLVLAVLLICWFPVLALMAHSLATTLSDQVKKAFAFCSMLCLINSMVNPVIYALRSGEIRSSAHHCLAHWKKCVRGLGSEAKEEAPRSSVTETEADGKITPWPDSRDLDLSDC

Compound	Ki (Cannabinoid receptor 1 [1])	Ki (Cannabinoid receptor 2 [2])	Ki (Cannabinoid receptor 2 [3])	Ki (Cannabinoid receptor 1 [4])	IC50 (Cannabinoid receptor 2 [5])	Ratio Ki (Homo sapiens)
O=C(NC12CC3CC(CC(C3)C1)C2)c1cn2c3c(cccc3c1=O)OC(c1ccccc1)C2c1ccccc1 (racemic)	> 10000 nM	> 10000 nM	> 10000 nM	> 10000 nM	–	–
CCC1COc2cccc3c(=O)c(C(=O)NC4CCCCC4)cn1c23 (racemic)	821 nM	22 nM	24 nM	972 nM	62 nM	37
CCCC1COc2cccc3c(=O)c(C(=O)NC4CCCCC4)cn1c23 (racemic)	10.2 nM	0.32 nM	1.84 nM	13.4 nM	1.53 nM	32
O=C(NC1CCCCCC1)c1cn2c3c(cccc3c1=O)OCC2C1CC1 (racemic)	91 nM	3.12 nM	3.52 nM	101 nM	12.4 nM	29
CC1(C)COc2cccc3c(=O)c(C(=O)NC45CC6CC(CC(C6)C4)C5)cn1c23	221 nM	56 nM	68 nM	276 nM	242 nM	4
CC1Oc2cccc3c(=O)c(C(=O)NC4CCCCC4)cn(c23)C1c1ccccc1 (racemic)	3130 nM	536 nM	710 nM	3520 nM	2750 nM	5.83
C[C@H]1COc2cccc3c(=O)c(C(=O)NC45CC6CC(CC(C6)C4)C5)cn1c23	> 10000 nM	78 nM	86 nM	> 10000 nM	250 nM	> 128
O=C(NC1CCCCC1)c1cn2c3c(cccc3c1=O)OCC2c1ccccc1 (racemic)	420 nM	2.52 nM	19.3 nM	1150 nM	15.2 nM	166
O=C(NC12CC3CC(CC(C3)C1)C2)c1cn2c3c(cccc3c1=O)OC[C@H]2Cc1ccccc1	105 nM	3.72 nM	4.65 nM	121 nM	17.5 nM	28
C[C@H]1COc2cccc3c(=O)c(C(=O)NC4CCCCC4)cn1c23	4650 nM	188 nM	250 nM	5240 nM	724 nM	25
CCCC1COc2cccc3c(=O)c(C(=O)NC45CC6CC(C)(CC(C)(C6)C4)C5)cn1c23 (racemic)	200 nM	3.62 nM	10.7 nM	476 nM	20 nM	55
Cc1cc2c3c(c1)c(=O)c(C(=O)NC14CC5CC(CC(C5)C1)C4)cn3C(c1ccccc1)CO2 (racemic)	–	–	–	–	472 nM	–
CCC1COc2cccc3c(=O)c(C(=O)NC45CC6CC(CC(C6)C4)C5)cn1c23 (racemic)	689 nM	7.83 nM	13.5 nM	725 nM	38 nM	88
CC12CC3CC(C)(C1)CC(NC(=O)c1cn4c5c(cccc5c1=O)OCC4c1ccccc1)(C3)C2 (racemic)	460 nM	3.45 nM	46 nM	545 nM	18.3 nM	133
CCC1COc2cccc3c(=O)c(C(=O)Nc4nccs4)cn1c23 (racemic)	1360 nM	265 nM	324 nM	1620 nM	1130 nM	5
CCCC1COc2ccc(C)c3c(=O)c(C(=O)NC45CC6CC(CC(C6)C4)C5)cn1c23 (racemic)	450 nM	10.4 nM	13.2 nM	476 nM	42 nM	43
CCC1COc2c(N3CCCC3)ccc3c(=O)c(C(=O)NC45CC6CC(CC(C6)C4)C5)cn1c23 (racemic)	> 10000 nM	8.12 nM	10.5 nM	> 10000 nM	29 nM	> 1230
CC[C@@H]1COc2cccc3c(=O)c(C(=O)NC45CC6CC(CC(C6)C4)C5)cn1c23	197 nM	4.93 nM	6.17 nM	242 nM	18.1 nM	40
O=C(NC12CC3CC(CC(C3)C1)C2)c1cn2c3c(cccc3c1=O)OCC2C1CC1 (racemic)	389 nM	8.92 nM	10.3 nM	482 nM	32 nM	44
CC(C)[C@@H]1COc2cccc3c(=O)c(C(=O)NC45CC6CC(CC(C6)C4)C5)cn1c23	88 nM	1.24 nM	1.75 nM	95 nM	9.84 nM	71
CCCC1COc2ccc(C)c3c(=O)c(C(=O)NC4CCCCC4)cn1c23 (racemic)	756 nM	38 nM	43 nM	874 nM	122 nM	20
CC1COc2cccc3c(=O)c(C(=O)NC45CC6CC(CC(C6)C4)C5)cn1c23 (racemic)	> 10000 nM	47 nM	55 nM	> 10000 nM	230 nM	> 212
O=C(NC1CCCCCC1)c1cn2c3c(cccc3c1=O)OCC2c1ccccc1 (racemic)	310 nM	0.81 nM	14.7 nM	372 nM	5.23 nM	383
CCC1COc2c(F)ccc3c(=O)c(C(=O)NC45CC6CC(CC(C6)C4)C5)cn1c23 (racemic)	389 nM	7.34 nM	9.51 nM	452 nM	27 nM	53
CC(C)C[C@@H]1COc2cccc3c(=O)c(C(=O)NC45CC6CC(CC(C6)C4)C5)cn1c23	> 10000 nM	9.24 nM	10.2 nM	> 10000 nM	36 nM	> 1080
CCC1COc2c(F)c(F)cc3c(=O)c(C(=O)NC45CC6CC(CC(C6)C4)C5)cn1c23 (racemic)	1750 nM	33 nM	37 nM	1820 nM	145 nM	53
CCC1COc2cccc3c(=O)c(C(=O)N(C(C)C)C(C)C)cn1c23 (racemic)	> 10000 nM	85 nM	104 nM	> 10000 nM	423 nM	> 118
C[C@@H]1COc2cccc3c(=O)c(C(=O)NC4CCCCC4)cn1c23	2870 nM	24 nM	30 nM	3560 nM	90 nM	119
CC[C@H]1COc2cccc3c(=O)c(C(=O)NC4CCCCCC4)cn1c23	843 nM	187 nM	203 nM	913 nM	682 nM	4.5
CC[C@@H]1COc2cccc3c(=O)c(C(=O)NC4CCCCCC4)cn1c23	105 nM	4.12 nM	6.03 nM	126 nM	17.2 nM	25
